Measured values: PubChem BioAssay (NCI)
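1) Cells in 96-well plates. 2) Compound, 48 h, 5 concentrations. 3) Linear interpolation between surrounding doses. 4) Unreached endpoint = highest concentration. Definition used: TGI = concentration required for complete inhibition of growth.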

Tests used:
Assay in all cases: NCI anticancer screen, dose series, 48 h
SK-OV-3 ovarian = test system: SK-OV-3 ovarian
SNB-75 CNS = test system: SNB-75 CNS
SR leukemia = test system: SR leukemia
COLO 205 colon = test system: COLO 205 colon
K-562 leukemia = test system: K-562 leukemia
EKVX NSCLC = test system: EKVX NSCLC
NCI-H460 lung = test system: NCI-H460 lung
HOP-62 NSCLC = test system: HOP-62 NSCLC
NCI-H226 lung = test system: NCI-H226 lung
786-0 renal = test system: 786-0 renal
PC-3 prostate = test system: PC-3 prostate
T-47D breast = test system: T-47D breast

Row | SMILES | TGI (SK-OV-3 ovarian) | TGI (SNB-75 CNS) | TGI (SR leukemia) | TGI (COLO 205 colon) | TGI (K-562 leukemia) | TGI (EKVX NSCLC) | TGI (NCI-H460 lung) | TGI (HOP-62 NSCLC) | TGI (NCI-H226 lung) | TGI (786-0 renal) | TGI (PC-3 prostate) | TGI (T-47D breast)
1 | C1=CCN(c2ccccc2)CC1 | > 100 µM | > 100 µM | > 100 µM | > 100 µM | > 100 µM | > 100 µM | > 100 µM | – | – | – | – | –
2 | Nc1ccc(N=Nc2ccc(/C=C/c3ccc(N=Nc4ccc(N)c5ccc(S(=O)(=O)O)cc45)cc3S(=O)(=O)O)c(S(=O)(=O)O)c2)c2cc(S(=O)(=O)O)ccc12 | > 100 µM | > 100 µM | – | > 100 µM | > 100 µM | > 100 µM | > 100 µM | > 100 µM | > 100 µM | – | – | –
3 | COc1ccc2c(OC)c3ccoc3nc2c1O | > 100 µM | > 100 µM | – | > 100 µM | > 100 µM | > 100 µM | > 100 µM | > 100 µM | – | > 100 µM | – | –
4 | O=C(CCN(CCO)CCO)Nc1ccc2c(c1)C(=O)c1ccc(NC(=O)CCN(CCO)CCO)cc1C2=O | > 100 µM | > 100 µM | > 100 µM | 29.5 µM | 74.4 µM | 55 µM | 22.7 µM | 98.3 µM | 44.2 µM | 32 µM | – | –
5 | CCCOC(=O)c1cc(C(=CCC[C@H]2CC[C@@]3(C)[C@@H](CC[C@@H]4[C@@H]3CC[C@]3(C)[C@@H](C(C)CCCC(C)C)CC[C@@H]43)C2)c2cc(Cl)c(O)c(C(=O)OCCC)c2)cc(Cl)c1O (stereo partly drawn) | – | > 50 µM | – | > 50 µM | > 5 µM | > 50 µM | > 50 µM | > 50 µM | > 50 µM | > 50 µM | > 50 µM | > 50 µM
6 | CC(=O)c1c2c(cc3c1CC1(Cc4cc5c(cc4C1)CCC5)C3)CCC2 | > 100 µM | > 100 µM | > 100 µM | – | > 100 µM | > 100 µM | > 100 µM | > 100 µM | – | > 100 µM | > 100 µM | > 100 µM
7 | COc1c(O)cc(/C=C/c2cc(O)cc3c2[C@@]2(C(=O)O3)c3c(O)cc(O)cc3OC2c2cccc(O)c2)cc1O (stereo partly drawn) | 74.8 µM | – | 26.5 µM | > 100 µM | 91.9 µM | – | 31.9 µM | > 100 µM | – | > 100 µM | > 100 µM | > 100 µM
8 | Cc1ccc(S(=O)(=O)N(c2ccccc2F)C2CCCCC2O)cc1 (stereo not drawn) | 64 µM | 88.5 µM | 51.8 µM | 71.3 µM | > 100 µM | > 100 µM | > 100 µM | > 100 µM | > 100 µM | > 100 µM | > 100 µM | –
9 | O=C(O)CCC(=O)Nc1ccc2c(c1)S(=O)(=O)N(CC(=O)O)C2=O | > 100 µM | – | > 100 µM | > 100 µM | > 100 µM | > 100 µM | > 100 µM | > 100 µM | > 100 µM | > 100 µM | > 100 µM | > 100 µM
10 | COc1ccccc1NC(=O)C(C#N)=C(SC)SC | > 100 µM | – | > 100 µM | > 100 µM | > 100 µM | > 100 µM | > 100 µM | > 100 µM | > 100 µM | > 100 µM | > 100 µM | > 100 µM
11 | N#Cc1c(-c2ccccc2)c(C#N)c(=O)n(NS(=O)(=O)c2ccccc2)c1O | > 100 µM | > 100 µM | – | > 100 µM | > 100 µM | > 100 µM | > 100 µM | > 100 µM | > 100 µM | > 100 µM | > 100 µM | –
12 | CN(C(=O)C1=CCCCCC1)c1ccccc1I | > 100 µM | 79.7 µM | > 100 µM | 37.6 µM | > 100 µM | 80.4 µM | > 100 µM | > 100 µM | – | > 100 µM | > 100 µM | > 100 µM
13 | CCCCOC(=O)/C(CC(=O)C=C(C)C)=N\NS(=O)(=O)c1ccc(C)cc1 | > 100 µM | > 100 µM | 71.8 µM | > 100 µM | > 100 µM | > 100 µM | > 100 µM | > 100 µM | > 100 µM | > 100 µM | – | –
14 | CC(=O)Nc1ccc(-c2nnc(SCC(=O)Nc3ccccc3Cl)o2)cc1 | > 100 µM | > 100 µM | – | > 100 µM | > 100 µM | – | > 100 µM | > 100 µM | > 100 µM | > 100 µM | – | –
15 | O=C(Nc1ccccc1)N1CCNC1=S | > 100 µM | > 100 µM | > 100 µM | > 100 µM | > 100 µM | > 100 µM | > 100 µM | > 100 µM | > 100 µM | > 100 µM | – | > 100 µM
16 | CC(=O)OC1[C@H]2c3cc4c(cc3CN3CCC(C[C@@H]1OC(C)=O)C23)OCO4 (stereo partly drawn) | > 75 µM | > 75 µM | > 75 µM | > 75 µM | > 75 µM | > 75 µM | > 75 µM | > 75 µM | 59.9 µM | > 75 µM | – | –
17 | CC(C#N)Nc1ccc(Oc2ccc(C(C)(C)c3ccc(Oc4ccc(NC(C)C#N)cc4)cc3)cc2)cc1 (stereo not drawn) | > 100 µM | > 100 µM | – | > 100 µM | > 100 µM | > 100 µM | > 100 µM | – | > 100 µM | > 100 µM | > 100 µM | > 100 µM
18 | CC(C)=CCC/C(C)=C/Cc1cc(/C=C/c2cc(O)c(CC=C(C)C)c(O)c2)cc(O)c1O | 21.5 µM | 7.57 µM | – | 33.4 µM | 10.4 µM | 7.46 µM | 9.2 µM | 24.4 µM | 23 µM | 17 µM | 11.9 µM | 4.54 µM
19 | C1CSCC2(COC2)CS1 | > 100 µM | > 100 µM | > 100 µM | > 100 µM | > 100 µM | – | > 100 µM | – | > 100 µM | – | > 100 µM | –
20 | Cc1ccc(-c2c(C#N)c(-c3ccc(N(C)C)cc3)c(C#N)c(=O)n2NS(=O)(=O)c2ccccc2)cc1 | > 100 µM | > 100 µM | – | > 100 µM | > 100 µM | > 100 µM | > 100 µM | > 100 µM | > 100 µM | > 100 µM | > 100 µM | –
21 | CCN(CC)CCCCC1CCN(CC(=O)N2c3ccccc3NC(=O)c3ccccc32)CC1 | > 100 µM | > 100 µM | > 100 µM | > 100 µM | > 100 µM | > 100 µM | – | > 100 µM | > 100 µM | > 100 µM | – | –
